From ChEMBL document CHEMBL3817739, “Synthesis and cytotoxic evaluation of several oleanolic aciduracil/thymine conjugates” (Medchemcomm, 2016)
The source made the active and inactive calls. The rule behind the calls is not given here.

Experiments:
MCF7 = experiment: Cytotoxicity against human MCF7 cells assessed as inhibition of cell proliferation after 72 hrs by MTT assay; type: functional, cell-based; conditions: MCF7, 72 h
HepG2 [1] = experiment: Disruption of mitochondrial membrane potential in human HepG2 cells assessed as mitochondrial membrane potential at 2 uM after 24 hrs by Rhodamine 123 staining based flow cytometry (reference value: 86.2%); type: functional
HepG2 [2] = experiment: Induction of apoptosis in human HepG2 cells assessed as viable cells at 2 uM after 24 hrs by Annexin V-FITC/propidium iodide staining based flow cytometry (reference value: 93.2%); type: functional; conditions: HepG2, 24 h, read-out: Activity
HepG2 [3] = experiment: Cell cycle arrest in human HepG2 cells assessed as accumulation at G2/M phase at 3 uM after 48 hrs by propidium iodide staining based flow cytometry (reference value: 13.83%); type: functional
[4] = Cytotoxicity against human BGC823 cells assessed as inhibition of cell proliferation after 72 hrs by MTT assay; type: functional, cell-based; conditions: BGC-823, 72 h
HepG2 [5] = experiment: Disruption of mitochondrial membrane potential in human HepG2 cells after 24 hrs by Rhodamine 123 staining based flow cytometry; type: functional, cell-based
HepG2 [6] = experiment: Induction of apoptosis in human HepG2 cells assessed as caspase 3 activation at 4 uM using FITC-DEVD-FMK as probe after 24 hrs by flow cytometry (reference value: 3.3%); type: functional
HepG2 [7] = experiment: Cell cycle arrest in human HepG2 cells assessed as accumulation at G1 phase at 2 uM after 48 hrs by propidium iodide staining based flow cytometry (reference value: 60.65%); type: functional
HepG2 [8] = experiment: Cell cycle arrest in human HepG2 cells assessed as accumulation at S phase at 2 uM after 48 hrs by propidium iodide staining based flow cytometry (reference value: 25.52%); type: functional
[9] = Cytotoxicity against human PC3 cells assessed as inhibition of cell proliferation after 72 hrs by MTT assay; type: functional, cell-based, PC-3; conditions: Homo sapiens, PC-3, 72 h; read-out: IC50
HepG2 [10] = experiment: Disruption of mitochondrial membrane potential in human HepG2 cells assessed as mitochondrial membrane potential at 4 uM after 24 hrs by Rhodamine 123 staining based flow cytometry (reference value: 86.2%); type: functional
HepG2 [11] = experiment: Induction of apoptosis in human HepG2 cells assessed as late apoptotic cells at 4 uM after 24 hrs by Annexin V-FITC/propidium iodide staining based flow cytometry (reference value: 2.7%); type: functional
HepG2 [12] = experiment: Induction of apoptosis in human HepG2 cells assessed as necrotic cells at 4 uM after 24 hrs by Annexin V-FITC/propidium iodide staining based flow cytometry (reference value: 2.7%); type: functional
HepG2 [13] = experiment: Induction of morphological changes in human HepG2 cells assessed as chromatin condensation and fragmentation at 2 to 4 uM after 24 hrs by acridine orange/ethidium bromide double staining based fluorescence microscopy; type: functional, cell-based
HepG2 [14] = experiment: Induction of apoptosis in human HepG2 cells assessed as viable cells at 4 uM after 24 hrs by Annexin V-FITC/propidium iodide staining based flow cytometry (reference value: 93.2%); type: functional; conditions: HepG2, 24 h, read-out: Activity
HepG2 [15] = experiment: Induction of apoptosis in human HepG2 cells assessed as karyopyknosis and chromatin condensation at 2 to 4 uM after 24 hrs by Hoechst 33258 staining based fluorescence microscopy; type: functional, cell-based
HepG2 [16] = experiment: Induction of apoptosis in human HepG2 cells assessed as late apoptotic cells at 2 uM after 24 hrs by Annexin V-FITC/propidium iodide staining based flow cytometry (reference value: 2.7%); type: functional
HepG2 [17] = experiment: Induction of apoptosis in human HepG2 cells assessed as early apoptotic cells at 2 uM after 24 hrs by Annexin V-FITC/propidium iodide staining based flow cytometry (reference value: 1.36%); type: functional
A549 = experiment: Cytotoxicity against human A549 cells assessed as inhibition of cell proliferation after 72 hrs by MTT assay; type: functional, cell-based; conditions: A549, 72 h
HepG2 [18] = experiment: Induction of apoptosis in human HepG2 cells assessed as caspase 9 activation at 4 uM using FITC-LEHD-FMK as probe after 24 hrs by flow cytometry (reference value: 4.4%); type: functional
HepG2 [19] = experiment: Induction of apoptosis in human HepG2 cells assessed as necrotic cells at 2 uM after 24 hrs by Annexin V-FITC/propidium iodide staining based flow cytometry (reference value: 2.7%); type: functional
HepG2 [20] = experiment: Cell cycle arrest in human HepG2 cells assessed as accumulation at G1 phase at 3 uM after 48 hrs by propidium iodide staining based flow cytometry (reference value: 60.65%); type: functional
HepG2 [21] = experiment: Cytotoxicity against human HepG2 cells assessed as inhibition of cell proliferation after 72 hrs by MTT assay; type: functional, cell-based; conditions: HepG2, 72 h
HepG2 [22] = experiment: Cell cycle arrest in human HepG2 cells assessed as accumulation at S phase at 4 uM after 48 hrs by propidium iodide staining based flow cytometry (reference value: 25.52%); type: functional
HepG2 [23] = experiment: Disruption of mitochondrial membrane potential in human HepG2 cells assessed as mitochondrial membrane potential at 3 uM after 24 hrs by Rhodamine 123 staining based flow cytometry (reference value: 86.2%); type: functional
HepG2 [24] = experiment: Cell cycle arrest in human HepG2 cells assessed as accumulation at G1 phase at 4 uM after 48 hrs by propidium iodide staining based flow cytometry (reference value: 60.65%); type: functional
HepG2 [25] = experiment: Cell cycle arrest in human HepG2 cells assessed as accumulation at G2/M phase at 2 uM after 48 hrs by propidium iodide staining based flow cytometry (reference value: 13.83%); type: functional
HepG2 [26] = experiment: Induction of apoptosis in human HepG2 cells assessed as early apoptotic cells at 4 uM after 24 hrs by Annexin V-FITC/propidium iodide staining based flow cytometry (reference value: 1.36%); type: functional
HepG2 [27] = experiment: Cell cycle arrest in human HepG2 cells assessed as accumulation at G2/M phase at 4 uM after 48 hrs by propidium iodide staining based flow cytometry (reference value: 13.83%); type: functional
HepG2 [28] = experiment: Cell cycle arrest in human HepG2 cells assessed as accumulation at S phase at 3 uM after 48 hrs by propidium iodide staining based flow cytometry (reference value: 25.52%); type: functional

SMILES: CC1(C)CC[C@]2(C(=O)OCCCCCCn3ccc(=O)[nH]c3=O)CC[C@]3(C)C(=CC[C@@H]4[C@@]5(C)CC[C@H](O)C(C)(C)[C@@H]5CC[C@]43C)[C@@H]2C1
- IC50 (MCF7): 2.75 µM
- Activity (HepG2 [1]): 77.7%
- viability at 2 µM (HepG2 [2]): 88%
- Activity (HepG2 [3]): 1.73%
- IC50 [4]: 1.28 µM
- Activity (HepG2 [5]): Dose-dependent effect
- Activity (HepG2 [6]): 31%
- Activity (HepG2 [7]): 92.75%
- Activity (HepG2 [8]): 6.51%
- IC50 [9]: 0.18 µM
- Activity (HepG2 [10]): 49.4%
- Activity (HepG2 [11]): 17.7%
- Activity (HepG2 [12]): 4.32%
- Activity (HepG2 [13]): Active
- viability at 4 µM (HepG2 [14]): 76.1%
- Activity (HepG2 [15]): Active
- Activity (HepG2 [16]): 7.75%
- Activity (HepG2 [17]): 1.91%
- IC50 (A549): 3.16 µM
- Activity (HepG2 [18]): 27.9%
- Activity (HepG2 [19]): 2.36%
- Activity (HepG2 [20]): 88.09%
- IC50 (HepG2 [21]): 3.98 µM
- Activity (HepG2 [22]): 14.27%
- Activity (HepG2 [23]): 67%
- Activity (HepG2 [24]): 82.48%
- Activity (HepG2 [25]): 0.74%
- Activity (HepG2 [26]): 1.83%
- Activity (HepG2 [27]): 3.25%
- Activity (HepG2 [28]): 10.18%

SMILES: Cc1cn(CCCCOC(=O)[C@]23CCC(C)(C)C[C@H]2C2=CC[C@@H]4[C@@]5(C)CC[C@H](O)C(C)(C)[C@@H]5CC[C@@]4(C)[C@]2(C)CC3)c(=O)n(CCCCOC(=O)[C@]23CCC(C)(C)C[C@H]2C2=CC[C@@H]4[C@@]5(C)CC[C@H](O)C(C)(C)[C@@H]5CC[C@@]4(C)[C@]2(C)CC3)c1=O
- IC50 (MCF7): 3.69 µM
- IC50 [4]: 16 µM
- IC50 [9]: 1.28 µM
- IC50 (A549): < 0.1 µM
- IC50 (HepG2 [21]): 3.02 µM

SMILES: Cc1cn(CCOC(=O)[C@]23CCC(C)(C)C[C@H]2C2=CC[C@@H]4[C@@]5(C)CC[C@H](O)C(C)(C)[C@@H]5CC[C@@]4(C)[C@]2(C)CC3)c(=O)n(CCOC(=O)[C@]23CCC(C)(C)C[C@H]2C2=CC[C@@H]4[C@@]5(C)CC[C@H](O)C(C)(C)[C@@H]5CC[C@@]4(C)[C@]2(C)CC3)c1=O
- IC50 (MCF7): 3.02 µM
- IC50 [4]: 1.89 µM
- IC50 [9]: 1.16 µM
- IC50 (A549): 0.79 µM
- IC50 (HepG2 [21]): 5.19 µM

SMILES: CC1(C)CC[C@]2(C(=O)OCCn3ccc(=O)[nH]c3=O)CC[C@]3(C)C(=CC[C@@H]4[C@@]5(C)CC[C@H](O)C(C)(C)[C@@H]5CC[C@]43C)[C@@H]2C1
- IC50 (MCF7): 45.9 µM
- IC50 [4]: 0.37 µM
- IC50 [9]: 9.61 µM
- IC50 (A549): 0.36 µM
- IC50 (HepG2 [21]): 15.2 µM

SMILES: Cc1cn(CCCCCCOC(=O)[C@]23CCC(C)(C)C[C@H]2C2=CC[C@@H]4[C@@]5(C)CC[C@H](O)C(C)(C)[C@@H]5CC[C@@]4(C)[C@]2(C)CC3)c(=O)[nH]c1=O
- IC50 (MCF7): 4.01 µM
- IC50 [4]: 0.37 µM
- IC50 [9]: 8.37 µM
- IC50 (A549): < 0.1 µM
- IC50 (HepG2 [21]): 5.09 µM

SMILES: Cc1cn(CCOC(=O)[C@]23CCC(C)(C)C[C@H]2C2=CC[C@@H]4[C@@]5(C)CC[C@H](O)C(C)(C)[C@@H]5CC[C@@]4(C)[C@]2(C)CC3)c(=O)[nH]c1=O
- IC50 (MCF7): 10.2 µM
- IC50 [4]: 0.16 µM
- IC50 [9]: 1.93 µM
- IC50 (A549): 35.1 µM
- IC50 (HepG2 [21]): 5.41 µM

SMILES: CC1(C)CC[C@]2(C(=O)OCCCCCCCCn3ccc(=O)[nH]c3=O)CC[C@]3(C)C(=CC[C@@H]4[C@@]5(C)CC[C@H](O)C(C)(C)[C@@H]5CC[C@]43C)[C@@H]2C1
- IC50 (MCF7): < 0.1 µM
- IC50 [4]: 14.9 µM
- IC50 [9]: 20.9 µM
- IC50 (A549): 8.47 µM
- IC50 (HepG2 [21]): 1.05 µM

SMILES: CC1(C)CC[C@]2(C(=O)OCCCCn3ccc(=O)[nH]c3=O)CC[C@]3(C)C(=CC[C@@H]4[C@@]5(C)CC[C@H](O)C(C)(C)[C@@H]5CC[C@]43C)[C@@H]2C1
- IC50 (MCF7): 70.4 µM
- IC50 [4]: 0.93 µM
- IC50 [9]: 1.45 µM
- IC50 (A549): 0.11 µM
- IC50 (HepG2 [21]): 4.21 µM
